Source: patent publication US8865894B2, “Oxazolidin-2-one compounds and uses thereof” (Novartis AG, priority 2012, dated 2014)

Molecular target: PI3Kgamma (Homo sapiens, UniProt P48736)
Assay: Biochemical PI3Kgamma (TR-FRET Adapta Universal Kinase Assay)
Conditions: mean of n measurements, read-out: PIK3g/ IC50
Protocol: Test compounds were dissolved in DMSO (10 mM) and transferred into 1.4 mL flat bottom or V-shaped Matrix tubes carrying a unique 2D matrix chip by individual Novartis compound hubs. The numbers of these chips were distinctively linked to Novartis Pharma Numbers. The stock solutions were stored at −20° C. if not used immediately. For the test procedure the vials were defrosted and identified by a scanner whereby a working sheet was generated that guided the subsequent working steps.
Compounds were either manually diluted in DMSO for individual experiments (96 wells enabling 10 cpds at 8 (single points) concentrations) as described in or prepared as described below if tested for profiling in 384-wells. This format enabled the assay of maximally 40 individual test compounds at 8 concentrations (single points) including 4 reference compounds. The dilution protocol included the production of “pre-dilution plates”, “master plates” and “assay plates”.
96 polypropylene well plates were used as pre-dilution plates. A total of 4 pre-dilution plates were prepared including 10 test compounds each on the plate positions A1-A10, one standard compound at A11 and one DMSO control at A12. Programs have been written to run these pipetting steps on the HamiltonSTAR robots.
100 μL of individual compound dilutions including standard compound and controls of the 4 “pre-dilution plates” were transferred into a 384 “master plate” including the following concentrations 1,820, 564, 182, 54.6, 18.2, 5.46, 1.82 and 0.546 μM, respectively in 90% DMSO.
Identical “assay plates” were then prepared by pipetting 50 nL each of compound dilutions of the “master plates” into 384-well “assay plates”. The compounds were mixed with 4.5 μL of assays components plus 4.5 μL enzyme corresponding to a 1:181 dilution enabling the final concentration of 10, 3.0, 1.0, 0.3, 0.1, 0.03, 0.01 and 0.003 μM, respectively. The preparation of the “master plates” was handled by the Matrix PlateMate Plus robot and replication of “assay plates” by the HummingBird robot.
The TR-FRET Adapta™ Universal Kinase Assay Kit was purchased from Invitrogen Corporation (Carlsbad/CA, USA) (Cat. No. PV5099). The kit contains the following reagents: Adapta Eu-anti-ADP Antibody (Europium labeled anti-ADP antibody in HEPES buffered saline, Cat. No. PV5097), Alexa Fluor® 647-labeled ADP tracer (Alexa Fluor® 647-labeled ADP tracer in HEPES buffered saline, Cat. No. PV5098), proprietary TR-FRET dilution buffer pH 7.5 (Cat. No. PV3574).
PIK3CD substrate Phosphatidylinositol was obtained from Invitrogen (vesicules consisting of 2 mM PI in 50 mM HEPES pH7.5; Cat. No. PV5371). PIK3CG substrate Phosphatidylinositol-4,5-bisphosphate (PIP(4,5)2 was obtained from Invitrogen (PIP2:PS large unilamellar vesicules consisting of 1 mM PIP2: 19 mM PS in 50 mM HEPES pH7.5, 3 mM MgCl2, 1 mM EGTA; Cat. No. PV5100).
Time-Resolved Fluorescence Resonance Energy Transfer (TR-FRET) is a technology based on energy transfer between two adjacent dyes, from an excited electron in one dye (the donor) to an electron of an adjacent dye (the acceptor) through resonance, then released as a photon. This energy transfer is detected by an increase in the fluorescence emission of the acceptor, and a decrease in the fluorescence emission of the donor. TR-FRET assays for protein kinases use a long-lifetime lanthanide Terbium or Europium chelates as the donor species which overcome interference from compound autofluorescence or light scatter from precipitated compounds, by introducing a delay after excitation by a flashlamp excitation source. Results are often expressed as a ratio of the intensities of the acceptor and donor fluorophores. The ratiometric nature of such a value corrects for differences in assay volumes between wells, as well as corrects for quenching effects due to colored compounds. The Adapta™ assay can be divided into two phases: a kinase reaction phase and an ADP detection phase. […]

Sequence of PI3Kgamma (P48736 whole entry, species assumed): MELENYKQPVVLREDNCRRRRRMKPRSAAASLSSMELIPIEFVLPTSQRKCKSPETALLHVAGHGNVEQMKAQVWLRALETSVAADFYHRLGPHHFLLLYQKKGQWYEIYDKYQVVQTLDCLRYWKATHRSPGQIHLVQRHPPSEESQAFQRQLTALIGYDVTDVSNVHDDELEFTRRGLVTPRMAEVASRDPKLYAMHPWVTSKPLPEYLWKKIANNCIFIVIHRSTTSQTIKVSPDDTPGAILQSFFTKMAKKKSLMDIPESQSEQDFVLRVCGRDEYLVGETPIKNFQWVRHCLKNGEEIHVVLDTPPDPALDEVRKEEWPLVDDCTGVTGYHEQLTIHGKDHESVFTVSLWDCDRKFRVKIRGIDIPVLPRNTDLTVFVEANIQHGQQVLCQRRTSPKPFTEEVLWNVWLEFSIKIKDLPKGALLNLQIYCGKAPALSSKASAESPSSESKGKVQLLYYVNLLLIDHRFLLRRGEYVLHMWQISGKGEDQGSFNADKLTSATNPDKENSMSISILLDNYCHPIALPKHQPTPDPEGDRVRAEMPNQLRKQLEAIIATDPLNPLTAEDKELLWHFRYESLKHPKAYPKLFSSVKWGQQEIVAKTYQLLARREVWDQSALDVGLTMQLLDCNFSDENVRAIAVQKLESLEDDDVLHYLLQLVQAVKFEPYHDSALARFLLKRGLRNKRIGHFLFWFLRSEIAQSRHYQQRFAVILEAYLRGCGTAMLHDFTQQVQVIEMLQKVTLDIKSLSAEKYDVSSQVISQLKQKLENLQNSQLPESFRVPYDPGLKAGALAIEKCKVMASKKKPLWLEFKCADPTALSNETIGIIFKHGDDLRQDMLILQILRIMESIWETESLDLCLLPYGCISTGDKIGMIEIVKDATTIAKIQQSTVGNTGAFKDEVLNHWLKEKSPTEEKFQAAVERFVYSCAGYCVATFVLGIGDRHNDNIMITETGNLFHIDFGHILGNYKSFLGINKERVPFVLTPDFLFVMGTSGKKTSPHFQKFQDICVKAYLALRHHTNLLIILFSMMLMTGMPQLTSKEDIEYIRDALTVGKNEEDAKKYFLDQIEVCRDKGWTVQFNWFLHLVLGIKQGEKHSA

SMILES | IC50 [nM]
C[C@H]1C(CC(C)(C)O)OC(=O)N1c1cc(-c2cnc(N)nc2C(F)(F)F)nc(N2CCOCC2)n1 (mixture of isomers) [Example 26, (4S,5R)- and (4S,5S)-3-(2′-amino-2-morpholino-4′-(trifluoromethyl)-[4,5′-bipyrimidin]-6-yl)-5-(2-hydroxy-2-methylpropyl)-4-methyloxazolidin-2-one] | 290
C[C@@H](O)C[C@H]1OC(=O)N(c2cc(-c3cnc(N)nc3C(F)(F)F)nc(N3CCOCC3)n2)[C@H]1C (single isomer, unassigned) [Example 24] | 540
